A short description of the test: HCV Replicon Assay and EC50 Determination: HCV replicon assay is based on the luciferase reporter cell line (Huh-luc/neo-ET). This reporter cell line is a human liver carcinoma cell line (Huh-7) stably transfected with an autonomously replicating bicistronic HCV subgenomic RNA replicon (Lohmann et al., 1999, Science, 285, 110-113). Inhibition of HCV RNA replication was monitored through analysis of reporter luciferase activity. Briefly, HCV replicon cells were incubated with inhibitors for 72 hours at 37° C. After the incubation, duplicate plates were treated and incubated in parallel for assessment of cellular toxicity by XTT staining and anti-HCV activity by measurement of luciferase reporter activity. Either human interferon alpha 2B or ribavirin was used as a reference compound. EC50 values were determined using GraFit (Erithaus software) or Excel.

Each structure is given as a SMILES string. Where only a bound is given, the exact number is not on record here.

As usually defined, the EC50 is the concentration giving half of the maximal effect. Higher therefore signals lower potency in that assay. Regarding `CNC(=O)c1c(-c2ccc(F)cc2)oc2cc(N(CC(=O)NC3(C(=O)NCc4cccc(C(=O)/C=C(\O)C(=O)O)c4)CCCC3)S(C)(=O)=O)c(C3CC3)cc12`, the 50% effective concentration (EC50) fell in the range of 0.1 to 1 µM.
For `CNC(=O)c1c(-c2ccc(F)cc2)oc2cc(N(CCCCCOCc3ccc(C(=O)O)cc3)S(C)(=O)=O)c(C3CC3)cc12` the value was < 0.1 µM.
For `CNC(=O)c1c(-c2ccc(F)cc2)oc2cc(N(CCOCCOCc3cccc(C(=O)/C=C(\O)C(=O)O)c3)S(C)(=O)=O)c(C3CC3)cc12` the value was < 0.1 µM; for `CNC(=O)c1c(-c2ccc(F)cc2)oc2cc(N(CCCCOCCc3ccc(C(=O)O)cc3)S(C)(=O)=O)c(C3CC3)cc12`, < 0.1 µM; for `CNC(=O)c1c(-c2ccc(F)cc2)oc2cc(N(CCOCCOCc3ccc(C(=O)O)cc3)S(C)(=O)=O)c(C3CC3)cc12`, 0.1 to 1 µM.
For `CNC(=O)c1c(-c2ccc(F)cc2)oc2cc(N(CCCCCCCc3ccc(C(=O)O)cc3)S(C)(=O)=O)c(C3CC3)cc12` the value was < 0.1 µM.
Compound `CNC(=O)c1c(-c2ccc(F)cc2)oc2cc(N(CCOCCOCCOC(C(=O)O)c3ccccc3)S(C)(=O)=O)c(C3CC3)cc12` (centres undefined) yielded a concentration giving a half-maximal response (EC50) of 0.1 to 1 µM.
On to `CNC(=O)c1c(-c2ccc(F)cc2)oc2cc(N(CCOCCCc3cccc(C(=O)/C=C(\O)C(=O)O)c3)S(C)(=O)=O)c(C3CC3)cc12`, for which the EC50 is < 0.1 µM.
For `CNC(=O)c1c(-c2ccc(F)cc2)oc2cc(N(CCOCCCOCc3cccc(C(=O)/C=C(\O)C(=O)O)c3)S(C)(=O)=O)c(C3CC3)cc12` the value was < 0.1 µM; for `CNC(=O)c1c(-c2ccc(F)cc2)oc2cc(N(CCOCCOCc3cccc(C(=O)O)c3)S(C)(=O)=O)c(C3CC3)cc12`, < 0.1 µM.
Consider `CNC(=O)c1c(-c2ccc(F)cc2)oc2cc(N(CCOCCOCCOCC(=O)NO)S(C)(=O)=O)c(C3CC3)cc12`, for which the concentration for a half-maximal effect (EC50) is < 0.1 µM.
In turn, `CNC(=O)c1c(-c2ccc(F)cc2)oc2cc(N(CC(=O)NC(C)(C)C(=O)NCc3cccc(C(=O)/C=C(\O)C(=O)O)c3)S(C)(=O)=O)c(C3CC3)cc12` displayed an EC50 of 0.1 to 1 µM.
For `CNC(=O)c1c(-c2ccc(F)cc2)oc2cc(N(CCOCCOCc3ccc(OC)c(C(=O)O)c3)S(C)(=O)=O)c(C3CC3)cc12` the value was 0.1 to 1 µM; for `CNC(=O)c1c(-c2ccc(F)cc2)oc2cc(N(CCOCCOCCOCCO)S(C)(=O)=O)c(C3CC3)cc12`, 0.1 to 1 µM.
For `CNC(=O)c1c(-c2ccc(F)cc2)oc2cc(N(CCOC(=O)CNC(=O)CCCC(=O)O)S(C)(=O)=O)c(C3CC3)cc12` the value was 0.1 to 1 µM; for `CNC(=O)c1c(-c2ccc(F)cc2)oc2cc(N(CCOCCOCCOC(C)C(=O)O)S(C)(=O)=O)c(C3CC3)cc12` (centres undefined), < 0.1 µM.
For `CNC(=O)c1c(-c2ccc(F)cc2)oc2cc(N(CCOCCOCCOCCOCCOCCOCc3cccc(C(=O)/C=C(\O)C(=O)O)c3)S(C)(=O)=O)c(C3CC3)cc12` the value was 0.1 to 1 µM.
On to `CNC(=O)c1c(-c2ccc(F)cc2)oc2cc(N(CC(=O)NCC(=O)NCc3cccc(C(=O)/C=C(\O)C(=O)O)c3)S(C)(=O)=O)c(C3CC3)cc12`, for which the concentration giving a half-maximal response (EC50) fell in the range of 0.1 to 1 µM.
`CNC(=O)c1c(-c2ccc(F)cc2)oc2cc(N(CC(=O)NC(C)C(=O)NCc3cccc(C(=O)/C=C(\O)C(=O)O)c3)S(C)(=O)=O)c(C3CC3)cc12` (centres undefined) gave an EC50 of 0.1 to 1 µM.
For `CNC(=O)c1c(-c2ccc(F)cc2)oc2cc(N(CCOCCOCCOCC(=O)O)S(C)(=O)=O)c(C3CC3)cc12` the value was 0.1 to 1 µM; for `CNC(=O)c1c(-c2ccc(F)cc2)oc2cc(N(CCOCCOCc3cccc(C(C)=O)c3)S(C)(=O)=O)c(C3CC3)cc12`, < 0.1 µM; for `CNC(=O)c1c(-c2ccc(F)cc2)oc2cc(N(CCOCCOCc3ccc(C(=O)/C=C(\O)C(=O)O)cc3)S(C)(=O)=O)c(C3CC3)cc12`, < 0.1 µM.
For `CNC(=O)c1c(-c2ccc(F)cc2)oc2cc(N(CCOCCOCc3ccccc3C(=O)O)S(C)(=O)=O)c(C3CC3)cc12` the value was < 0.1 µM; for `CNC(=O)c1c(-c2ccc(F)cc2)oc2cc(N(CCOCCOCc3ccc(F)c(C(=O)O)c3)S(C)(=O)=O)c(C3CC3)cc12`, < 0.1 µM.

These data come from ChEMBL document CHEMBL5728324, “Inhibitors of Hepatitis C virus polymerase” (2021).
